Assay results published in paper PMC7041945, “Misfolded proteins bind and activate death receptor 5 to trigger apoptosis during unresolved endoplasmic reticulum stress” (eLife, 2020).

What was measured:
[1] = test system: CHOP, BiP, and DR5 mRNA in HCT116 cells; experiment: qPCR of UPR target transcripts (CHOP, BiP, DR5); type: cell-based, Homo sapiens
Procedure: Cells were grown in 6-well plates and harvested with 0.5 ml of TRIzol reagent (Life Technologies) per manufacturer’s protocol to extract RNA. For cDNA synthesis, 500 ng of total RNA was reverse transcribed with 2 μl of the SuperScript VILO master mix (Life Technologies # 11755050) in a total reaction volume of 10 μl following the manufacturer’s protocol for reaction temperature and duration. The reverse transcription product was diluted to 200 μl with 10 mM Tris-HCl pH 8.2 and used at 1:100 dilution for subsequent RT-PCR reactions.
PCR samples were prepared as described by manufacturer’s protocols from iQ SYBR Green Supermix (BioRad #17088800).
For each experiment, qRT-PCR reactions were set up in triplicate and run using a CFX96 Real Time System (Bio-Rad). Quantitation cycles were determined with CFX Manager 3.0 software (Bio-Rad) and then normalized to GAPDH as an internal control.

[2] = test system: GAPDH; experiment: qPCR of GAPDH (reference transcript); type: cell-based; conditions: Rep 2; for avg. fold induction GAPDH / fold induction GAPDH: relative to empty traffo
[3] = Compiled Reps INS RHO, average of 6 reps

Substance: INS-GFP: GFP-tagged proinsulin expressed from plasmid
- Cq(sample) - avg Cq(GAPDH), CHOP ([1]; 24 hr, Rep 2, replicate 3): 4.191
- Cq(sample) - avg Cq(GAPDH), DR5 total ([1]; 24 hr, Rep 2, replicate 3): 4.623
- BiP avg fold change relative to empty ([1]; Compiled Reps INS RHO, average of 3 reps): 1.818
- CHOP avg fold change relative to empty [1, 3]: 4.114
- DR5 avg fold change relative to empty [1, 3]: 1.533
- GAPDH avg fold change relative to empty [1, 3]: 1.006
- GFP construct avg fold change relative to empty [1, 3]: 92.5691
- BiP fold change relative to empty ([1]; Compiled Reps INS RHO, rep 1): 1.621
- CHOP fold change relative to empty ([1]; Compiled Reps INS RHO, rep 1): 3.15
- DR5 fold change relative to empty ([1]; Compiled Reps INS RHO, rep 1): 1.705
- GAPDH fold change relative to empty ([1]; Compiled Reps INS RHO, rep 1): 0.8468
- GFP construct fold change relative to empty ([1]; Compiled Reps INS RHO, rep 1): 79.1961
- BiP fold change relative to empty ([1]; Compiled Reps INS RHO, rep 2): 1.965
- CHOP fold change relative to empty ([1]; Compiled Reps INS RHO, rep 2): 3.503
- DR5 fold change relative to empty ([1]; Compiled Reps INS RHO, rep 2): 1.533
- GAPDH fold change relative to empty ([1]; Compiled Reps INS RHO, rep 2): 1.093
- GFP construct fold change relative to empty ([1]; Compiled Reps INS RHO, rep 2): 73.666
- BiP fold change relative to empty ([1]; Compiled Reps INS RHO, rep 3): 1.867
- CHOP fold change relative to empty ([1]; Compiled Reps INS RHO, rep 3): 2.685
- DR5 fold change relative to empty ([1]; Compiled Reps INS RHO, rep 3): 1.358
- GAPDH fold change relative to empty ([1]; Compiled Reps INS RHO, rep 3): 1.081
- GFP construct fold change relative to empty ([1]; Compiled Reps INS RHO, rep 3): 131.33
- CHOP fold change relative to empty ([1]; Compiled Reps INS RHO, rep 4): 6.073
- DR5 fold change relative to empty ([1]; Compiled Reps INS RHO, rep 4): 1.494
- GAPDH fold change relative to empty ([1]; Compiled Reps INS RHO, rep 4): 0.8281
- GFP construct fold change relative to empty ([1]; Compiled Reps INS RHO, rep 4): 82.5431
- CHOP fold change relative to empty ([1]; Compiled Reps INS RHO, rep 5): 4.514
- DR5 fold change relative to empty ([1]; Compiled Reps INS RHO, rep 5): 1.718
- GAPDH fold change relative to empty ([1]; Compiled Reps INS RHO, rep 5): 1.042
- GFP construct fold change relative to empty ([1]; Compiled Reps INS RHO, rep 5): 92.9155
- CHOP fold change relative to empty ([1]; Compiled Reps INS RHO, rep 6): 4.759
- DR5 fold change relative to empty ([1]; Compiled Reps INS RHO, rep 6): 1.392
- GAPDH fold change relative to empty ([1]; Compiled Reps INS RHO, rep 6): 1.149
- GFP construct fold change relative to empty ([1]; Compiled Reps INS RHO, rep 6): 95.7639
- UPR target gene transcription ([1]; HCT116, transfected 24 hr): upregulated BiP and CHOP mRNAs
- Cq GAPDH ([2]; 3 hr, mean of 3 replicates): 19.1619
- avg. fold induction GAPDH ([2]; 3 hr, mean of 3 replicates): 1
- fold induction GAPDH ([2]; 3 hr, replicate 1): 0.8888
- fold induction GAPDH ([2]; 3 hr, replicate 2): 1.06
- fold induction GAPDH ([2]; 3 hr, replicate 3): 1.051
- 2^-(deltaCq) GAPDH ([2]; 3 hr, replicate 1): 0.8916
- Cq GAPDH ([2]; 3 hr, replicate 1): 19.3274
- Cq(sample) - avg Cq(GAPDH), GAPDH ([2]; 3 hr, replicate 1): 0.1655
- 2^-(deltaCq) GAPDH ([2]; 3 hr, replicate 2): 1.064
- Cq GAPDH ([2]; 3 hr, replicate 2): 19.0729
- Cq(sample) - avg Cq(GAPDH), GAPDH ([2]; 3 hr, replicate 2): -0.08892
- 2^-(deltaCq) GAPDH ([2]; 3 hr, replicate 3): 1.055
- Cq GAPDH ([2]; 3 hr, replicate 3): 19.0852
- Cq(sample) - avg Cq(GAPDH), GAPDH ([2]; 3 hr, replicate 3): -0.07662
- Cq GAPDH ([2]; 7 hr, mean of 3 replicates): 19.3003
- avg. fold induction GAPDH ([2]; 7 hr, mean of 3 replicates): 1.004
- fold induction GAPDH ([2]; 7 hr, replicate 1): 0.8393
- fold induction GAPDH ([2]; 7 hr, replicate 2): 1.091
- fold induction GAPDH ([2]; 7 hr, replicate 3): 1.082
- 2^-(deltaCq) GAPDH ([2]; 7 hr, replicate 1): 0.842
- Cq GAPDH ([2]; 7 hr, replicate 1): 19.5485
- Cq(sample) - avg Cq(GAPDH), GAPDH ([2]; 7 hr, replicate 1): 0.2482
- 2^-(deltaCq) GAPDH ([2]; 7 hr, replicate 2): 1.094
- Cq GAPDH ([2]; 7 hr, replicate 2): 19.1708
- Cq(sample) - avg Cq(GAPDH), GAPDH ([2]; 7 hr, replicate 2): -0.1295
- 2^-(deltaCq) GAPDH ([2]; 7 hr, replicate 3): 1.086
- Cq GAPDH ([2]; 7 hr, replicate 3): 19.1817
- Cq(sample) - avg Cq(GAPDH), GAPDH ([2]; 7 hr, replicate 3): -0.1186
- Cq GAPDH ([2]; 24 hr, mean of 3 replicates): 19.7046
- avg. fold induction GAPDH ([2]; 24 hr, mean of 3 replicates): 1.006
- fold induction GAPDH ([2]; 24 hr, replicate 1): 0.8281
- fold induction GAPDH ([2]; 24 hr, replicate 2): 1.042
- fold induction GAPDH ([2]; 24 hr, replicate 3): 1.149
- 2^-(deltaCq) GAPDH ([2]; 24 hr, replicate 1): 0.8307
- Cq GAPDH ([2]; 24 hr, replicate 1): 19.9722
- Cq(sample) - avg Cq(GAPDH), GAPDH ([2]; 24 hr, replicate 1): 0.2676
- 2^-(deltaCq) GAPDH ([2]; 24 hr, replicate 2): 1.045
- Cq GAPDH ([2]; 24 hr, replicate 2): 19.6413
- Cq(sample) - avg Cq(GAPDH), GAPDH ([2]; 24 hr, replicate 2): -0.06334
- 2^-(deltaCq) GAPDH ([2]; 24 hr, replicate 3): 1.1521
- Cq GAPDH ([2]; 24 hr, replicate 3): 19.5004
- Cq(sample) - avg Cq(GAPDH), GAPDH ([2]; 24 hr, replicate 3): -0.2043
